“Also recorded” adds a separate entry of the source.
Columns and labels:
[1] = target: peripheral-type benzodiazepine receptors (Homo sapiens, UniProt P30536); conditions: cited from earlier work
[2] = impurity profile by HPLC after annealing; assay type: physicochemical; conditions: annealed at 80° C. for 1 hour
Method: 4.0 g of drug substance were dissolved in 200 mL of a 50/50 (by volume) mixture of DCM and EtOH at 20° C. The mixture was stirred for about 1 hour. The resulting clear solution was spray dried in a Buchi B290 Mini Spray Dryer by pumping the solution through a 0.7 mm nozzle (commercially available from Buchi) at approximately 2 to 3 mL/minute. The system was operated at an inlet gas temperature of 100° C. and an outlet gas temperature of approximately 70° C. The solvent was removed to isolate the solid (approximately 3.0 g).
The HPLC method parameters utilized in Example 4 were as follows: System HP 1050, column-Waters C8 Symmetry Shield 5 um (4.6×150 mm), Mobile phase (“A”): 0.05% formic acid in water, Mobile phase (“B”): 0.05% formic acid in acetonitrile, injection volume: 10 μl, wavelength: 258 nm, and flow rate: 0.8 mL/minute. A gradient method was used according to the time table below.

[3] = polymorphic stability during wet granulation (XRPD); assay type: physicochemical; conditions: wet granulation of Example 6, dried at 50° C. for 2 hours
Method: The sample prepared according the Example 5, above was used to prepare a wet granulation formulation with the following composition: […]
The drug substance product of Example 5, lactose, microcrystalline cellulose (Avicel®, available from FMC BioPolymer, Philadelphia, Pa.), and sodium starch glycolate were pre-blended by screening five times with a 20 mesh screen. For the granulating fluid, the hydroxypropylmethylcellulose was dissolved in hot water at 5% concentration then cooled to 20° C. The sodium lauryl sulfate was dissolved in the cooled granulating fluid at 1.5% concentration. Approximately 50% water (relative to the weight of total solids) was used to prepare the granulation; the granulating fluid was added dropwise to the premixed powders while mixing in a mortar and pestle. The granulation was dried at 50° C. for 2 hours, and then ground in a mortar and pestle prior to analysis.
XRPD patterns were obtained with a Bruker D8® ADVANCE X-ray powder diffractometer using copper K-alpha radiation. The instrument was equipped with parallel beam optics, and the tube voltage and amperage were set to 40 kV and 40 mA, respectively. Samples were scanned at a rate of 1.0 degree/minute from 2 to 40 degrees in angle 2-theta.

[4] = stability profile of the crystalline form; assay type: physicochemical

Chain of peripheral-type benzodiazepine receptors (P30536 whole entry): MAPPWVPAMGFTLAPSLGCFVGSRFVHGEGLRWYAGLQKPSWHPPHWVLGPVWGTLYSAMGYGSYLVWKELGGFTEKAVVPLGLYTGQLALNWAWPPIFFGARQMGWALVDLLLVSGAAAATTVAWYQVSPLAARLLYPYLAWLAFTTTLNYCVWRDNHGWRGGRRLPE

Row | changes in the impurity profile after the annealing process (HPLC) [2] | stability profile to support use in a pharmaceutical product [4] | SMILES | affinity for the peripheral-type benzodiazepine receptors [1] | conversion of Form II to crystalline Form I during the wet granulation process (XRPD) [3]
1 |  |  | CN(C)C(=O)Cc1nn(-c2ccccc2)c(=O)c2c1c1ccc(Cl)cc1n2C [7-Chloro-N,N,5-trimethyl-4-oxo-3-phenyl-3,5-dihydro-4H-pyridazino[4,5-b]indole-1-acetamide] | high affinity | 
2 | no changes in the impurity profile | sufficient stability profile | CN(C)C(=O)Cc1nn(-c2ccccc2)c(=O)c2c1c1ccc(Cl)cc1n2C [Form II, 7-chloro-N,N,5-trimethyl-4-oxo-3-phenyl-3,5-dihydro-4H-pyridazino[4,5-b]indole-1-acetamide] |  | no evidence of the Form II solid converting to crystalline Form I; also recorded: stable with respect to wet granulation
